Several values for one entry are separate records, joined by “and”; a condition that tells them apart may be missing. Equal entries are not always repeated. Structures can show the parent of a compound that is named as a salt. Where two headings read alike, the source gives them in different places.
Columns and labels:
ER/IL-6 = assay: Endothelial Cell ER/IL-6 Assay, IL-6 promoter luciferase (Table 2); assay type: cell-based, human; settings: ERα infected HAECT-1 cells, IL-1β; for IC50: read-out: IL6 luc IC50; for Emax: read-out: IL6 luc % Efficacy
Description: T-175 flasks of 100% confluent HAECT-1 cells (immortalized human aortic endothelial cells) were washed with 8 ml of HBSS (HEPES buffered saline solution) and infected for fours hours with 6 ml of a 1:10 dilution of Ad5-wt-hERα virus (an adenovirus transfection vector that mediates CMV promoter driven expression of human ERα) in phenol red free Endothelial Cell Basal medium (Clonetics, San Diego, Calif., Catalog # CC-3129) containing 0.25% bovine serum albumin (EDM-BSA). After four hours, cells were washed with EDM-BSA and incubated overnight in the same medium. Following overnight incubation, cells were washed with EDM-BSA and infected for 2 hours with 6 ml of a 1:10 dilution of Ad5-3x(NFκB).Luc virus (Adenovirus luciferase expression vector driven by three repeats of the MHC NFκb sites 5′ to the thymidine kinase promoter) in EDM-BSA. After two hours, cells were washed and incubated at 34° C. for one hour. Cells were then washed, trypsinized, counted, and resuspended in 95% FBS/5% dimethylsulfoxide at a concentration of […], frozen as 1 or 5 ml aliquots in cryo-vials and stored at −150° C. Control (no ER infection) cells were processed as above without Ad5-wt-hERα virus infection.
ERα infected HAECT-1 cells or control cells were thawed, diluted 42× in warm EBM-BSA, plated into 96-well plates at 0.1 ml/well and incubated for 4 hours at 34° C. Test compounds were added to the cells at 2× stocks in EBM-BSA containing 2 ng/ml IL-1β Ad6-IL-6(1250 bp).Luc virus and plates were returned to the incubator (34° C.). After […], cells were lysed with 50 μl of Promega Cell Culture Lysis reagenet for about 5 minutes at room temperature on a shaker. After lysing, 15 μl of lysate is transferred to luminometer plates for luciferase determination. Luciferase activity is evaluated using a Perkin Elmer Victor2 1420 multilabel counter. Creatine kinase was determined from the rate of increase in A340 following addition of 100 μl of CK assay reagent (Sigma catalog no. 47-10) to the remainder of the cell lysate.
For IC50 and EC50 calculations, mean IL-6, luciferase or CK values versus log10 of the compound concentration were fitted to a four parameter logistic equation. The IC50/EC50 value, ‘Hill slope,’ upper and lower limits of the curve were iteratively estimated.

COC(=O)[C@@](C#N)(CCN1CCOCC1)[C@H](c1ccccc1OC)c1cccc2ccccc12 (relative stereo) [Example 147, Methyl (2S*)-2-cyano-2-[(S*)-(2-methoxyphenyl)(1-naphthyl)methyl]-4-morpholin-4-ylbutanoate]
IC50 (ER/IL-6; Homo sapiens, HAECT1): 12 nM

COCCOC[C@@](C#N)(C(=O)N1CCN(c2cnccn2)CC1)[C@@H](c1ccccc1OC)c1cccc2ccccc12 [Example 171, (RR,SS)-2-[(2-methoxyethoxy)methyl]-3-(2-methoxyphenyl)-3-(1-naphthyl)-2-[(4-pyrazin-2-ylpiperazin-1-yl)carbonyl]propanenitrile]
IL6 luc % Efficacy (ER/IL-6): 54% | IC50 (ER/IL-6): 337 nM

COc1ccccc1[C@H](c1cccc2ccccc12)[C@@](C)(C#N)C(=O)N1CCN(c2ccc(C)c(C)c2)CC1
melting point: 181 to 183 °C

COc1ccccc1[C@H](c1cccc2ccccc12)[C@@](C)(C#N)C(=O)N1CCN(CC(=O)N2CCOCC2)CC1
melting point: 201 °C

COc1ccccc1[C@H](c1cccc2ccccc12)[C@@](C)(C#N)C(=O)N1CCN(c2cccc(C)c2)CC1
melting point: 104 to 105 °C

COc1ccccc1[C@@H](c1cccc2ccccc12)[C@@](C#N)(Cc1cccnc1)C(=O)OC(C)(C)C [Example 179, tert-Butyl (RR,SS)-2-cyano-3-(2-methoxyphenyl)-3-(1-naphthyl)-2-(pyridin-3-ylmethyl)propanoate]
IL6 luc % Efficacy (ER/IL-6): 128% | IC50 (ER/IL-6): 151 nM

COCCOC[C@@](C#N)(C(=O)NCC(C)(C)C)[C@@H](c1ccccc1OC)c1cccc2ccccc12 [Example 170, (RR,SS)-2-Cyano-N-(2,2-dimethylpropyl)-2-[(2-methoxyethoxy)methyl]-3-(2-methoxyphenyl)-3-(1-naphthyl)propanamide]
IL6 luc % Efficacy (ER/IL-6): 89% | IC50 (ER/IL-6): 577 nM

CC(C)(C)OC(=O)C(C#N)C(c1ccccc1OC(F)(F)F)c1cccc2ccccc12 (stereo not shown)
melting point: 115 to 118 °C

COCC(C#N)(C(=O)NC(C)(C)C)C(c1ccccc1OC)c1cccc2ccccc12 (stereo not drawn) [Example 180, (RR,SS)-N-(tert-butyl)-2-cyano-2-(methoxymethyl)-3-(2-methoxyphenyl)-3-(1-naphthyl)propanamide]
IL6 luc % Efficacy (ER/IL-6): 119% | IC50 (ER/IL-6): 200 nM

CC(C)(C)OC(=O)C(C#N)C(c1cccc2ccccc12)c1cccc2ccccc12 (stereo not shown)
melting point: 156 to 157 °C

COc1cc(OC)cc(N2CCN(C(=O)[C@](C)(C#N)[C@H](c3ccccc3OC)c3cccc4ccccc34)CC2)c1
melting point: 186 to 188 °C

COc1ccccc1C(c1cnc2ccccc2c1)C(C)(C#N)C(=O)N1CCC(c2cccc(C(F)(F)F)c2)CC1 (stereo not shown) [Example 164, 3-(2-Methoxyphenyl)-2-methyl-3-quinolin-3-yl-2-({4-[3-(trifluoromethyl)phenyl]piperidin-1-yl}carbonyl)propanenitrile]
Emax (ER/IL-6; Homo sapiens, HAECT1): 48% | IC50 (ER/IL-6; Homo sapiens, HAECT1): 32 nM

COC[C@](C#N)(C(=O)OC)[C@H](c1ccccc1OC)c1cccc2ccccc12 [Example 150, Methyl (2S,3S)-2-cyano-2-(methoxymethyl)-3-(2-methoxyphenyl)-3-(1-naphthyl)propanoate]
melting point: 176 to 178 °C

COC[C@@](C#N)(C(=O)N1CCN(CCN2CCOCC2)CC1)[C@@H](c1ccccc1OC)c1cccc2ccccc12 [Example 219, (RR,SS)-2-(methoxymethyl)-3-(2-methoxyphenyl)-2-{[4-(2-morpholin-4-ylethyl)piperazin-1-yl]carbonyl}-3-(1-naphthyl)propanenitrile]
IL6 luc % Efficacy (ER/IL-6): 74% | IC50 (ER/IL-6): 1400 nM

COc1ccccc1[C@H](c1cccc2ccccc12)[C@@](C)(C#N)C(=O)N1CCN(CCN2CCOCC2)CC1
melting point: 102 to 103 °C

COc1ccccc1[C@H](c1cccc2ccccc12)[C@@](C)(C#N)C(=O)N1CCN(c2cccc3c2CCC3)CC1
melting point: 188 to 190 °C

COc1ccccc1[C@H](c1cccc2ccccc12)[C@@](C)(C#N)C(=O)N1CCN(C(=O)c2ccco2)CC1
melting point: 193 °C

COc1ccccc1[C@H](c1cccc2ccccc12)[C@@](C)(C#N)C(=O)N1CCC(O)(c2ccc(Br)cc2)CC1
melting point: 206 to 208 °C

COc1ccccc1[C@H](c1cccc2ccccc12)[C@@](C)(C#N)C(=O)N1CCC(O)(c2cccc(C(F)(F)F)c2)CC1 [Example 140, (2S)-3-{4-hydroxy-4-[3-(trifluoromethyl)phenyl]piperidin-1-yl}-2-[(S)-(2-methoxyphenyl)(1-naphthyl)methyl]-2-methyl-3-oxopropanenitrile]
Emax (ER/IL-6; Homo sapiens, HAECT1): 125% | IC50 (ER/IL-6; Homo sapiens, HAECT1): 324 nM

C[C@@](C#N)(C(=O)O)[C@H](c1ccccc1C(F)(F)F)c1cccc2ccccc12 (racemic)
melting point: 220 °C (dec.)

COc1ccccc1[C@H](c1cccc2ccccc12)[C@@](C)(C#N)C(=O)N1CCN(c2ccccc2Cl)CC1
melting point: 145 to 147 °C

COc1ccccc1[C@@H](c1cccc2ccccc12)[C@@](C#N)(Cc1cccnc1)C(=O)NCC(C)(C)C [Example 176, (RR,SS)-2-cyano-N-(2,2-dimethylpropyl)-3-(2-methoxyphenyl)-3-(1-naphthyl)-2-(pyridin-3-ylmethyl)propanamide]
IL6 luc % Efficacy (ER/IL-6): 71% | IC50 (ER/IL-6): 413 nM

CCN(CC)CC[C@](C#N)(C(=O)OC)[C@H](c1ccccc1OC)c1cccc2ccccc12 (relative stereo) [Example 148, Methyl (2S*)-2-cyano-4-(diethylamino)-2-[(S*)-(2-methoxyphenyl)(1-naphthyl)methyl]butanoate]
IC50 (ER/IL-6; Homo sapiens, HAECT1): 257 nM

COc1ccccc1[C@H](c1cccc2ccccc12)[C@@](C)(C#N)C(=O)N1CCN(c2cccc(Cl)c2)CC1
melting point: 174 to 176 °C

COc1ccccc1[C@H](c1cccc2ccccc12)[C@@](C)(C#N)C(=O)N1CC=C(c2ccc(F)cc2)CC1 [Example 137, (2S)-3-[4-(4-fluorophenyl)-3,6-dihydropyridin-1(2H)-yl]-2-[(S)-(2-methoxyphenyl)(1-naphthyl)methyl]-2-methyl-3-oxopropanenitrile]
Emax (ER/IL-6; Homo sapiens, HAECT1): 163% | IC50 (ER/IL-6; Homo sapiens, HAECT1): 33 nM

CCN(CC)CC[C@](C#N)(C(=O)OC)[C@H](c1ccccc1OC)c1cccc2ccccc12 (relative stereo) (as salt: HCl) [Example 148, Methyl (2S*)-2-cyano-4-(diethylamino)-2-[(S*)-(2-methoxyphenyl)(1-naphthyl)methyl]butanoate]
melting point: 174 °C (dec.)

COCCOC[C@@](C#N)(C(=O)OC)[C@@H](c1ccccc1OC)c1cccc2ccccc12 [Example 159, Methyl (2R,3R)-2-cyano-2-[(2-methoxyethoxy)methyl]-3-(2-methoxyphenyl)-3-(1-naphthyl)propanoate]
Emax (ER/IL-6; Homo sapiens, HAECT1): 95% | IC50 (ER/IL-6; Homo sapiens, HAECT1): 273 nM

COC[C@](C#N)(C(=O)N1CCN(C2CCCCC2)CC1)[C@H](c1ccccc1OC)c1cccc2ccccc12 [Example 221, (2S,3S)-3-(4-cyclohexylpiperazin-1-yl)-2-(methoxymethyl)-2-[(2-methoxyphenyl)(1-naphthyl)methyl]-3-oxopropanenitrile]
IL6 luc % Efficacy (ER/IL-6): 159% and 245% and 174%

COCCOC[C@@](C#N)(C(=O)N1CCC(c2cccc(C(F)(F)F)c2)CC1)[C@@H](c1ccccc1OC)c1cccc2ccccc12 [Example 168, (RR,SS)-2-[(2-Methoxyethoxy)methyl]-3-(2-methoxyphenyl)-3-(1-naphthyl)-2-({4-[3-(trifluoromethyl)phenyl]piperidin-1-yl}carbonyl)propanenitrile]
IL6 luc % Efficacy (ER/IL-6): 68% | IC50 (ER/IL-6): 37 nM

— patent publication US20050256132A1, “Use of ER selective NF-kB inhibitors for the treatment of sepsis” (priority 2003, published 2005)
